For orientation: IC50 means the concentration at which inhibition is half-maximal. A higher IC50 goes with weaker potency. The bioavailability is dose-corrected exposure relative to a reference, in per cent. A higher bioavailability goes with much systemic uptake. By AUC(0-t) is commonly meant the area under the concentration-time curve up to a stated or last time point. One may read the Cmax as the peak of the concentration-time curve.

Structures are written as SMILES.

The target of one data set is T1, ROCK1 kinase (Homo sapiens, UniProt Q13464).
T1 construct: purchased Invitrogen
T1 sequence (Q13464 whole entry): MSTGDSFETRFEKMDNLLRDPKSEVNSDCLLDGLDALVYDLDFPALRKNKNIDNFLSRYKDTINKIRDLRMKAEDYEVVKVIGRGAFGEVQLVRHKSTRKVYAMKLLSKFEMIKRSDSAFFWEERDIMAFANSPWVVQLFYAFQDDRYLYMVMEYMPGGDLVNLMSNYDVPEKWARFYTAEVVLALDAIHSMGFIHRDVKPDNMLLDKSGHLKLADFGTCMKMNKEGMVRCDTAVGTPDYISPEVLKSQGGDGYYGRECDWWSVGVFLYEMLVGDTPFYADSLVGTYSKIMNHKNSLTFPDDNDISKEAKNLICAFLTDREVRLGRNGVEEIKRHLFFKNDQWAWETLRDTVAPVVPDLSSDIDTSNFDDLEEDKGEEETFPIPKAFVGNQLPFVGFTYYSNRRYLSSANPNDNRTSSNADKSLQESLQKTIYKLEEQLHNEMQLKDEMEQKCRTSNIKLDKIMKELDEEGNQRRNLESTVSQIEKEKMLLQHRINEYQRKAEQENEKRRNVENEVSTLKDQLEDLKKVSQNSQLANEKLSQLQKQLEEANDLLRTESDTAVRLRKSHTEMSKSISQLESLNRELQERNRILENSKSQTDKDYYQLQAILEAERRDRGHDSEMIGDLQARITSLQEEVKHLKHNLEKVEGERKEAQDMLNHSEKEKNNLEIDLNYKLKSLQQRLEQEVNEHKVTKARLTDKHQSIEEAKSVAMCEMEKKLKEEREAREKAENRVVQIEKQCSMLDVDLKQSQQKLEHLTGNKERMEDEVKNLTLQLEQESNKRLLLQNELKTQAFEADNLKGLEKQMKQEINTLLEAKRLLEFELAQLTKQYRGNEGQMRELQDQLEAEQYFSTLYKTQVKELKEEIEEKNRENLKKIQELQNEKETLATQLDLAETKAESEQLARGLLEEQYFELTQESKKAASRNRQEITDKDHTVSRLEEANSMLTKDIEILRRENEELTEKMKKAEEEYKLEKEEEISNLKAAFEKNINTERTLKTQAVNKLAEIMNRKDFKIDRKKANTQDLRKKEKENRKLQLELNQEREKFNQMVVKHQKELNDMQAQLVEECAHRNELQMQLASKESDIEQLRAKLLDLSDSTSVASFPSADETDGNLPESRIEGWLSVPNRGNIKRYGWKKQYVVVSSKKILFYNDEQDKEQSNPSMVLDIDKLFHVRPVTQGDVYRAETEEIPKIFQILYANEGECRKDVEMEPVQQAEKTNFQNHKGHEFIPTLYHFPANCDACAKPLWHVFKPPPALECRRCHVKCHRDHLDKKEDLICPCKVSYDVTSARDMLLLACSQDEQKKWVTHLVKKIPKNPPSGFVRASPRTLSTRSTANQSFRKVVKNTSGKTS
As to the kind of experiment: In vitro evaluation of ROCK1 kinase selectivity (HTRF KinEASE-STK time-resolved fluorometric assay). Type of data set: biochemical. The method, then:
ROCK1 activity was detected using a 96-well (Cisbio) time-resolved fluorometric assay. The assay for ROCK1 was performed in the following assay buffer: 5 mM MgCl2 (Sigma), 1 mM DTT (Sigma) and 1× kinase buffer. The kinase buffer was used for dilution. 7.5 μL of ROCK1 kinase (Invitrogen) was added to a 96-well microplate to reach a final concentration of 0.4 ng/μL, and then 0.25 μL of test compound (DMSO content: 1%) was added. The mixture was incubated at room temperature for 0.5 h. To start the reaction, the kinase buffer was also used to mix ATP (Aladdin) and the substrate STK-substrate 2-biotin. 7.5 μL of the mixed solution was added to the microplate to reach final concentrations of 3.53 μM and 1 μM. The resulting mixture was incubated for 2 h at room temperature. […] was mixed with STK antibody-Cryptate, and then an appropriate volume of the mixture was mixed with an equal volume of streptavidin-XL665. 10 μL of the resulting mixture was added to stop the reaction. After further incubation for about 1 h, the microplate was read on a Molecular Devices SpectraMax i3x multifunctional microplate reader. The kinase buffer, the STK-substrate 2-biotin, the detection buffer, the STK antibody-Cryptate, and the streptavidin-XL665 were all from HTRF KinEASE-STK kit (Cisbio, 1000 tests, 61[…]).
(In TR-FRET formats the signal depends on donor and acceptor labels being close together.)

A further data set deals with T2, ROCK2 kinase (Homo sapiens, UniProt O75116).
T2 construct: purchased Invitrogen PV3759
T2 sequence (O75116 whole entry): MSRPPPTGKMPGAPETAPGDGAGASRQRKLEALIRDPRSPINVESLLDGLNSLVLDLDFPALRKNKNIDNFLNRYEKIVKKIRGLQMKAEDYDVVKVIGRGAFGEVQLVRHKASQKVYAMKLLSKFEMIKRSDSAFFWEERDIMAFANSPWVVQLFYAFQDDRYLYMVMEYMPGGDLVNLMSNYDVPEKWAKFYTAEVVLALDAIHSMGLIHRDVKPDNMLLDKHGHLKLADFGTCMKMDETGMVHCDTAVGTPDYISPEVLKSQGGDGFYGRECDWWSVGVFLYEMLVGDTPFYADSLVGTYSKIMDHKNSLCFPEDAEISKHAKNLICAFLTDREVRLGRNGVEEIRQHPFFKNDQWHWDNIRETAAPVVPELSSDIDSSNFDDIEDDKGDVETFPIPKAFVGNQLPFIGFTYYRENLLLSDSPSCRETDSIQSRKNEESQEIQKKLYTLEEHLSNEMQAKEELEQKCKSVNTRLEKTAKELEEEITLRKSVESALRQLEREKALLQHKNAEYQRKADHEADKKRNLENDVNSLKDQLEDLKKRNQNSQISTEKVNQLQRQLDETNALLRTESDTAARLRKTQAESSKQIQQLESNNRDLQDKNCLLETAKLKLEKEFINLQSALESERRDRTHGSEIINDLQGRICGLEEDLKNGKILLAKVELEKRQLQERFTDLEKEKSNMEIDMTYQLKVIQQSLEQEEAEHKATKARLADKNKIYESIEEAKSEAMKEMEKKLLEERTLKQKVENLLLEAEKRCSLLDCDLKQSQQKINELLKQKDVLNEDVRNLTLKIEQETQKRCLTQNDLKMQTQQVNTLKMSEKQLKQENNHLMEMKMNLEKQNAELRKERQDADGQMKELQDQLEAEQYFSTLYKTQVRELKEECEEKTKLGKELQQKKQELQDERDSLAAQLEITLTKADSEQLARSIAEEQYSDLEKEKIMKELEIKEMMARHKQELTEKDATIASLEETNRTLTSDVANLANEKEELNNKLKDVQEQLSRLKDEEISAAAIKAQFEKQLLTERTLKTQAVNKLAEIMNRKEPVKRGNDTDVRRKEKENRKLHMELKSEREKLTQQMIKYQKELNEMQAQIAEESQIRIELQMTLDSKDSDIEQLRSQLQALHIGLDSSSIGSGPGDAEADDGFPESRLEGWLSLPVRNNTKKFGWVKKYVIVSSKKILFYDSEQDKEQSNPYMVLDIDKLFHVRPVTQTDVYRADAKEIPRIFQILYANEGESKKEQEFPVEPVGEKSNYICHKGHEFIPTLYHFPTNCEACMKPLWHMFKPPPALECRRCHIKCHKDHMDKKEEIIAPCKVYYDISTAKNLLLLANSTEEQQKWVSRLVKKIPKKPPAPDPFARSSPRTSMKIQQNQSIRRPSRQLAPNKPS
The data set is described as follows: In vitro evaluation of ROCK2 kinase activity (HTRF KinEASE-STK time-resolved fluorometric assay). Type of data set: biochemical. The method, then: ROCK2 activity screening. ROCK2 activity was detected using a 96-well (Cisbio) time-resolved fluorometric assay. The assay for ROCK2 was performed in the following assay buffer: 5 mM MgCl2 (Sigma), 1 mM DTT (Sigma) and 1× kinase buffer. The kinase buffer was used for dilution. 7.5 μL of ROCK2 kinase (Invitrogen, PV3759) was added to a 96-well microplate to reach a final concentration of 0.4 ng/μL, and then 0.25 μL of test compound (DMSO content: 1% (volume fraction)) was added. The mixture was incubated at room temperature for 0.5 h. To start the reaction, the kinase buffer was used to mix ATP (Aladdin) and the substrate STK-substrate 2-biotin. 7.5 μL of the mixed solution was added to the microplate to reach final concentrations of 6.739 μM and 1 μM. The resulting mixture was incubated for 2 h at room temperature. 5 mL of detection buffer was mixed with STK antibody-Cryptate, and then an appropriate volume of the mixture was mixed with an equal volume of streptavidin-XL665. 10 μL of the resulting mixture was added to the microplate to stop the reaction. After further incubation for about 1 h, the microplate was read on a Molecular Devices SpectraMax i3x multifunctional microplate reader. The kinase buffer, the STK-substrate 2-biotin, the detection buffer, the STK antibody-Cryptate, and the streptavidin-XL665 were all from HTRF KinEASE-STK kit (Cisbio, 1000 tests, 61[…]).

A short description of data set [1]: In vivo pharmacokinetic study in mice. To be noted: mouse, plasma. The text has this: In Vivo Pharmacokinetic Study of Compounds Disclosed Herein in Mice SPF-grade mice (SPF (Beijing) Biotechnology Co., Ltd.) were fasted overnight (without water deprivation) after adaptive feeding, and then received the compound of the present disclosure by intragastrical administration and bolus injection at tail vein. After administration, plasma of mice was collected at specific time points, and the concentration of the compound in the plasma was detected by LC-MS/MS (AB SCIEX Qtrap4500). The PK parameters of the compounds were statistically analyzed and calculated (WinNonlin V5.2, Pharsight) to show the pharmacokinetic properties of the compounds in mice.

On to `COc1cc(F)cc(CNC(=O)N2CCc3cc(-c4cn[nH]c4)ccc3C2)c1` [Compound T201, N-(3-fluoro-5-methoxybenzyl)-6-(1H-pyrazol-4-yl)-3,4-dihydroisoquinoline-2(1H)-carboxamide], for which the concentration for half-maximal inhibition (IC50) at ROCK1 kinase is 500 to 5000 nM; on ROCK2 kinase it was 50 to 500 nM. The same molecule displayed a bioavailability in data set [1] (3 mg/kg Po vs Iv) of 42.4%. In addition, the AUC(0-t) is 413 ng·h/mL in data set [1] (Iv, 3 mg/kg) and 175 ng·h/mL in data set [1] (Po, 3 mg/kg). Moreover, the Cmax in data set [1] (Iv, 3 mg/kg) was determined as 704 ng/mL; in data set [1] (Po, 3 mg/kg), 95.5 ng/mL.
`COc1cc(F)cc(CNC(=O)c2ncn3cc(-c4cn[nH]c4)ccc23)c1` [Compound T238, N-(3-fluoro-5-methoxybenzyl)-6-(1H-pyrazol-4-yl)imidazo[1,5-a]pyridine-1-carboxamide]: the IC50 at ROCK1 kinase and on ROCK2 kinase was at most 50 nM in each case. The molecule also had a bioavailability in data set [1] (3.4 mg/kg Po vs Iv) of 84.6%. For the same molecule, the exposure AUC(0-t) stood at 10500 ng·h/mL in data set [1] (Iv, 3.4 mg/kg) and 8880 ng·h/mL in data set [1] (Po, 3.4 mg/kg). The Cmax in data set [1] (Iv, 3.4 mg/kg) is 4940 ng/mL; in data set [1] (Po, 3.4 mg/kg) it was 2130 ng/mL.
With `CC(C)CNC(=O)COc1cc(F)cc([C@@H](CO)NC(=O)N2CCc3cc(-c4cn[nH]c4)c(F)cc32)c1` [Compound T367, (S)-6-fluoro-N-(1-(3-fluoro-5-(2-(isobutylamino)-2-oxoethoxy)phenyl)-2-hydroxyethyl)-5-(1H-pyrazol-4-yl)indoline-1-carboxamide], the half-inhibitory concentration (IC50) against ROCK1 kinase and on ROCK2 kinase was at most 50 nM each time.
With `O=C(NCc1cccc(F)c1)c1ncn2cc(-c3cn[nH]c3)ccc12` [Compound T368, N-(3-fluorobenzyl)-6-(1H-pyrazol-4-yl)imidazo[1,5-a]pyridine-1-carboxamide], the concentration for half-maximal inhibition (IC50) against ROCK1 kinase was in the range of 500 to 5000 nM; at ROCK2 kinase it was 50 to 500 nM.
On the same counts, the results for `O=C(COc1cc(F)cc([C@@H](CO)NC(=O)N2CCc3cc(-c4cn[nH]c4)c(F)cc32)c1)NC1CC(F)(F)C1` [Compound T369, (S)-N-(1-(3-(2-((3,3-difluorocyclobutyl)amino)-2-oxoethoxy)-5-fluorophenyl)-2-hydroxyethyl)-6-fluoro-5-(1H-pyrazol-4-yl)indoline-1-carboxamide] are at most 50 nM and at most 50 nM.
In the case of `COc1cc(F)cc([C@@H](C)NC(=O)c2ncn3cc(-c4cn[nH]c4F)ccc23)c1` [Compound T370, (R)-6-(5-fluoro-1H-pyrazol-4-yl)-N-(1-(3-fluoro-5-methoxyphenyl)ethyl)imidazo[1,5-a]pyridine-1-carboxamide], the half-maximal inhibitory concentration (IC50) on ROCK1 kinase and at ROCK2 kinase was at most 50 nM each time.
As for `COc1cc(F)cc(C(CN)NC(=O)N2CCc3cc(-c4cn[nH]c4)c(F)cc32)c1` (stereo not shown) [Compound T371, N-(2-amino-1-(3-fluoro-5-methoxyphenyl)ethyl)-6-fluoro-5-(1H-pyrazol-4-yl)indoline-1-carboxamide], the half-maximal inhibitory concentration (IC50) against ROCK1 kinase and at ROCK2 kinase was at most 50 nM throughout.
Turning to `COc1cc(F)cc(CNC(=O)N2CCc3c2ccc(-c2cn[nH]c2)c3F)c1` [Compound T372, 4-fluoro-N-(3-fluoro-5-methoxybenzyl)-5-(1H-pyrazol-4-yl)indoline-1-carboxamide], the IC50 at ROCK1 kinase and against ROCK2 kinase was at most 50 nM in each case.
On to `COc1cc(F)cc([C@@H](CO)NC(=O)c2ncc3cc(-c4cn[nH]c4)ccn23)c1` [Compound T373, (5)-N-(1-(3-fluoro-5-methoxyphenyl)-2-hydroxyethyl)-7-(1H-pyrazol-4-yl)imidazo[1,5-a]pyridine-3-carboxamide], for which the IC50 against ROCK1 kinase and against ROCK2 kinase was at most 50 nM in each case.
Consider `COc1cc(F)cc([C@@H](CO)NC(=O)N2CCc3cc(-c4c[nH]nc4F)c(F)cc32)c1` [Compound T374, (S)-6-fluoro-5-(3-fluoro-1H-pyrazol-4-yl)-N-(1-(3-fluoro-5-methoxyphenyl)-2-hydroxyethyl)indoline-1-carboxamide], for which the IC50 against ROCK1 kinase and on ROCK2 kinase was at most 50 nM in each case.
As for `O=C(NCc1cc(F)cc(OC(F)F)c1)N1CCc2cc(-c3cn[nH]c3)c(F)cc21` [Compound T375, N-(3-(difluoromethoxy)-5-fluorobenzyl)-6-fluoro-5-(1H-pyrazol-4-yl)indoline-1-carboxamide], the results for the IC50 on ROCK1 kinase and on ROCK2 kinase were 50 to 500 nM and at most 50 nM, respectively.
On the same counts, the results for `O=C(NCc1cccc(OCC2CC2)c1)c1ncn2cc(-c3cn[nH]c3)ccc12` [Compound T376, N-(3-(cyclopropylmethoxy)benzyl)-6-(1H-pyrazol-4-yl)imidazo[1,5-a]pyridine-1-carboxamide] are 500 to 5000 nM and 50 to 500 nM.
In the case of `COc1cc(F)cc([C@@H](CO)NC(=O)N2CCc3cc(-c4cn[nH]c4)c(F)cc32)c1` [Compound T377, (S)-6-fluoro-N-(1-(3-fluoro-5-methoxyphenyl)-2-hydroxyethyl)-5-(1H-pyrazol-4-yl)indoline-1-carboxamide], the 50% inhibitory concentration (IC50) at ROCK1 kinase and on ROCK2 kinase was at most 50 nM throughout.
As for `O=C(NCC1CC1)c1cc(F)cc(CNC(=O)N2CCc3cc(-c4cn[nH]c4)c(F)cc32)c1` [Compound T378, N-(3-((cyclopropylmethyl)carbamoyl)-5-fluorobenzyl)-6-fluoro-5-(1H-pyrazol-4-yl)indoline-1-carboxamide], the 50% inhibitory concentration (IC50) on ROCK1 kinase and on ROCK2 kinase was at most 50 nM each time.
Turning to `CN1CC(NC(=O)c2cccc(CNC(=O)N3CCc4cc(-c5cn[nH]c5)c(F)cc43)c2)C1` [Compound T379, 6-fluoro-N-(3-((1-methylazetidin-3-yl)carbamoyl)benzyl)-5-(1H-pyrazol-4-yl)indoline-1-carboxamide], the IC50 against ROCK1 kinase and at ROCK2 kinase was at most 50 nM each time.
As to `COc1cc(F)cc([C@@H](CO)NC(=O)N2CCc3cc(-c4c[nH]nc4C)c(F)cc32)c1` [Compound T381, (S)-6-fluoro-N-(1-(3-fluoro-5-methoxyphenyl)-2-hydroxyethyl)-5-(3-methyl-1H-pyrazol-4-yl)indoline-1-carboxamide], the concentration for half-maximal inhibition (IC50) against ROCK1 kinase and against ROCK2 kinase was at most 50 nM each time.
As for `O=C(NCC1CC1)c1cccc(CNC(=O)N2CCc3cc(-c4cn[nH]c4)c(F)cc32)c1` [Compound T382, N-(3-((cyclopropylmethyl)carbamoyl)benzyl)-6-fluoro-5-(1H-pyrazol-4-yl)indoline-1-carboxamide], the IC50 at ROCK1 kinase and against ROCK2 kinase was at most 50 nM throughout.
As to `COc1cccc(CCC(=O)N2CCc3cc(-c4c[nH]nc4N)c(F)cc32)c1` [Compound T383], the IC50 at ROCK1 kinase and against ROCK2 kinase was 500 to 5000 nM each time.
Consider `O=C(N[C@H](CO)c1cc(F)cc(OCC2CC2)c1)N1CCc2cc(-c3cn[nH]c3)c(F)cc21` [Compound T386, (S)-N-(1-(3-(cyclopropylmethoxy)-5-fluorophenyl)-2-hydroxyethyl)-6-fluoro-5-(1H-pyrazol-4-yl)indoline-1-carboxamide], for which the concentration for half-maximal inhibition (IC50) against ROCK1 kinase is 50 to 500 nM; at ROCK2 kinase, at most 50 nM.
For `O=C(NC1CCCC1)c1cc(F)cc(C(CO)NC(=O)N2CCc3cc(-c4cn[nH]c4)c(F)cc32)c1` (stereo not shown) [Compound T389, N-(1-(3-(cyclopentylcarbamoyl)-5-fluorophenyl)-2-hydroxyethyl)-6-fluoro-5-(1H-pyrazol-4-yl)indoline-1-carboxamide], in that order: at most 50 nM and at most 50 nM.
For the molecule `CCOc1cc(F)cc([C@@H](CO)NC(=O)N2CCc3cc(-c4cn[nH]c4)c(F)cc32)c1` [Compound T390, (S′)-N-(1-(3-ethoxy-5-fluorophenyl)-2-hydroxyethyl)-6-fluoro-5-(1N-pyrazol-4-yl)indoline-1-carboxamide], the IC50 at ROCK1 kinase is 50 to 500 nM; against ROCK2 kinase, at most 50 nM.

These data come from patent US20230050653A1, “ROCK INHIBITOR AND PREPARATION METHOD THEREFOR AND USE THEREOF” (WUHAN LL SCIENCE AND TECHNOLOGY DEVELOPMENT CO., LTD., priority 2019, published 2023).
